Reference: patent publication US20250011311A1, “AMIDO HETEROAROMATIC COMPOUNDS” (AstraZeneca AB, priority 2022, published 2025)

Experiments:
[1] = target: recombinant 17bHSD4 (M1-N311) (Homo sapiens (Human), UniProt P51659); experiment: In Vitro 17bHSD4 Enzyme Assay; type: biochemical; conditions: 40 nM 17bHSD4, 0.125 mM NAD, 15 μM Estradiol, 1.5 h; NADH fluorescence; read-out: 17HSD17b4 Enzyme assay IC50
[2] = target: over expressed HSD17β9 in HEK293S cells (Homo sapiens (Human), UniProt Q92781); experiment: In Vitro 17bHSD9 Cell Assay; type: cell-based; conditions: HEK293S cells over expressing HSD17β9; retinol to retinal conversion, 18 h, LC-MS/MS; read-out: 17bHSD9 Cell assay IC50
Procedure, shortened: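 HEK293S cells overexpressing HSD17β9 were plated at 10K cells/well in DMEM + 10% FBS and cultured 18 h. Retinol-to-retinal conversion in media was quantified by LC-MS/MS (MRM) as retinal/(retinal + retinol). IC50 was fitted after normalisation to DMSO and full inhibition by a reference inhibitor.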

human hepatocytes = experiment: Assay A: Metabolic Stability in Human Hepatocytes; type: in vitro ADME; conditions: cryopreserved human hepatocytes, 10^6 viable cells/mL, 1 μM compound, 37° C.
Procedure, shortened: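 Cryopreserved hepatocytes (10^6 viable cells/mL) at 37° C with 1 μM test compound, sampled 0.5–120 min and quenched in MeCN. Parent measured by LC-MS/MS; CLint (μL/min/10^6 cells) from the slope of ln(parent concentration) vs time.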

CYP2C9 = CYP2C9 (Homo sapiens (Human), UniProt P11712); experiment: Assay B: Cytochrome P450 Inhibition 2C9
Chain of CYP2C9 (P11712 whole entry): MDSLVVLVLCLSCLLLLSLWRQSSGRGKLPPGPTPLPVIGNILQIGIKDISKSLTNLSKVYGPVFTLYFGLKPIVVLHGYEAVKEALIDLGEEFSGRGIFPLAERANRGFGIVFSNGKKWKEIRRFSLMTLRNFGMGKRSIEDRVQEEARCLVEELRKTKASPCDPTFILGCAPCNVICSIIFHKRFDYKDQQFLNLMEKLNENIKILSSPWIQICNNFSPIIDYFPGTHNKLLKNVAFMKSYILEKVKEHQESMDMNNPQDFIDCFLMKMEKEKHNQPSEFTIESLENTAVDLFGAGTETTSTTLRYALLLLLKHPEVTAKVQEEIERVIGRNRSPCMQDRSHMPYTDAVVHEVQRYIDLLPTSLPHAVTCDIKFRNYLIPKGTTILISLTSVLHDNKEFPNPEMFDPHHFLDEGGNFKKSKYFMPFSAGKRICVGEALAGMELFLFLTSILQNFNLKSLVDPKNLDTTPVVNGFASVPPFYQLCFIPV
Procedure: A fluorescence-based method in 96-well format was used to determine the inhibition of 2C9 (Crespi, C. L. et al., Microtiter plate assays for inhibition of human, drug-metabolizing cytochromes P450. Anal Biochem 1997, 248 (1), 188-190. DOI: 10.1006/abio.1997.2145, which is incorporated herein by reference). The recombinant human enzymes used were prepared in house, except for CYP2D6 (CYPEX LTD, Dundee, UK). Different coumarin substrates, biotransformed into fluorescent metabolites, were used as probes for each individual CYP. A fluorescence plate reader (SPECTRAMAX GEMINIXS, MOLECULAR DEVICES, Sunnyvale, California, USA) was used to measure the levels of metabolites formed. A dilution series of the test substrates was prepared at eight different concentrations. For each CYP, a mixture of the enzyme, corresponding coumarin substrate, potassium phosphate buffer pH 7.4 and water (concentrations and volumes were CYP-dependent) were added to each well in a black 96-well plate. The test substrates at different concentrations were added. After 10 min pre-incubation, the co-factor NADPH was added to initiate the reaction. After 20-50 min (CYP and substrate-dependent) the reaction was terminated by addition of trisbase/MeCN (20:80). The plates were transferred to the fluorescence plate reader where the wavelengths were set individually for the different coumarin substrates and their respective fluorescent metabolite. The responses were exported to Excel where the IC50 curves were plotted (percent inhibition versus concentration) and IC50 values calculated for each test substrate and enzyme using XL-fit.

Chain of recombinant 17bHSD4 (M1-N311) (P51659 1-311): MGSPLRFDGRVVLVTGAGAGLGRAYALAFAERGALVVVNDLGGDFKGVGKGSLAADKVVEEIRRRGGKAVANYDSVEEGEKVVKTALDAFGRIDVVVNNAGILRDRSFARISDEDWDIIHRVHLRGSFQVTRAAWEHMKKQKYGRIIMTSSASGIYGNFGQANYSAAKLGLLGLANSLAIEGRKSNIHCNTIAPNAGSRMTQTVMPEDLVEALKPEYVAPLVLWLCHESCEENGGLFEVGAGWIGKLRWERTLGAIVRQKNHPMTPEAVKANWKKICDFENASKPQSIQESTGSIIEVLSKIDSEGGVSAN
Chain of over expressed HSD17β9 in HEK293S cells (Q92781 whole entry): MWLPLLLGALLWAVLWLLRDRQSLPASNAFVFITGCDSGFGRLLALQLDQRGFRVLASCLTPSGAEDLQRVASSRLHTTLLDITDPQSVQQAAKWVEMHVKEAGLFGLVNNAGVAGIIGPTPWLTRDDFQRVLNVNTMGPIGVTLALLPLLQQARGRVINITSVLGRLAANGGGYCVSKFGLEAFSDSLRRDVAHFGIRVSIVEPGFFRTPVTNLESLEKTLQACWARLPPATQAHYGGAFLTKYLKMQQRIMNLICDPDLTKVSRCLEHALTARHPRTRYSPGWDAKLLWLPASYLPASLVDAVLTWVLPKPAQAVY

Structure (SMILES) | IC50 [1] [µM] | IC50 [2] [µM] | Assay A: Human Heps Met Clint GMean CLint (μl/min/1E6) (human hepatocytes) | IC50 (CYP2C9) [µM]
N#Cc1cccc2c1CCN(C(=O)c1noc(-c3cc(F)c(F)c(O)c3F)n1)C2 [Example 66, 2-(5-(2,4,5-Trifluoro-3-hydroxyphenyl)-1,2,4-oxadiazole-3-carbonyl)-1,2,3,4-tetrahydroisoquinoline-5-carbonitrile] | 19.3 | > 50 | 12.1 | 3.1
C[C@@H]1CN(C(=O)c2cnc(-c3cc(F)c(F)c(O)c3F)s2)C[C@H](C)O1 [Example 120, ((2R,6S)-2,6-Dimethylmorpholino)(2-(2,4,5-trifluoro-3-hydroxyphenyl)thiazol-5-yl)methanone] | > 50 | > 50 | 13.3 | 12.8
O=C(c1noc(-c2cc(F)c(F)c(O)c2F)n1)N1CCO[C@@H]2CCC[C@H]21 [Example 114, ((4aR,7aR)-Hexahydrocyclopenta[b][1,4]oxazin-4(4aH)-yl)(5-(2,4,5-trifluoro-3-hydroxyphenyl)-1,2,4-oxadiazol-3-yl)methanone] | > 50 | 15.8 | 6.4 | 7.2
O=C(c1noc(-c2cc(F)c(F)c(O)c2F)n1)N1CCO[C@H]2CCC[C@@H]21 [Example 115, ((4aS,7aS)-Hexahydrocyclopenta[b][1,4]oxazin-4(4aH)-yl)(5-(2,4,5-trifluoro-3-hydroxyphenyl)-1,2,4-oxadiazol-3-yl)methanone] | > 50 | 32.5 | 6.2 | 9.8
CC1CN(C(=O)c2noc(-c3cc(F)c(F)c(O)c3F)n2)CC2(CCC2)O1 (racemic) [Example 123, (6-Methyl-5-oxa-8-azaspiro[3.5]nonan-8-yl)(5-(2,4,5-trifluoro-3-hydroxyphenyl)-1,2,4-oxadiazol-3-yl)methanone] | 32 | 30 | 8.3 | 9.3
O=C(c1noc(-c2cc(F)c(F)c(O)c2F)n1)N1CC[C@H](c2ccc(Cl)cc2)C1 [Example 95, (R)-(3-(4-Chlorophenyl)pyrrolidin-1-yl)(5-(2,4,5-trifluoro-3-hydroxyphenyl)-1,2,4-oxadiazol-3-yl)methanone] | 6.9 | 17 | 12.9 | 1.1
O=C(c1noc(-c2cc(F)c(F)c(O)c2F)n1)N1CC2CCC(C1)C2(F)F [Example 43, (8,8-difluoro-3-azabicyclo[3.2.1]octan-3-yl)(5-(2,4,5-trifluoro-3-hydroxyphenyl)-1,2,4-oxadiazol-3-yl)methanone] | 39 | 18.4 | 3.3 | 13.9
C[C@@H]1CN(C(=O)c2noc(-c3cc(F)c(F)c(O)c3F)n2)[C@H](C)CO1 [Example 50, ((2R,5R)-2,5-Dimethylmorpholino)(5-(2,4,5-trifluoro-3-hydroxyphenyl)-1,2,4-oxadiazol-3-yl)methanone] | > 50 | 39.5 | 4.3 | 17.2
O=C(c1noc(-c2cc(F)c(F)c(O)c2F)n1)N1CCOC2CCCC21 (stereo not shown) [Example 41, (Hexahydrocyclopenta[b][1,4]oxazin-4(4aH)-yl)(5-(2,4,5-trifluoro-3-hydroxyphenyl)-1,2,4-oxadiazol-3-yl)methanone] | > 50 | 49.6 | 5.9 | 15.4
N#Cc1c(C(=O)N2CCN(CCCOc3ccc(F)cc3)CC2)noc1-c1cc(F)c(F)c(O)c1F [Example 14, 3-(4-(3-(4-Fluorophenoxy)propyl)piperazine-1-carbonyl)-5-(2,4,5-trifluoro-3-hydroxyphenyl)isoxazole-4-carbonitrile] | 41.4 | > 50 | 14.3 | 1.1
